Laboratory results taken from US7605149B1, “Modulation of the phospholipase A2 pathway as a therapeutic” (University of South Florida, priority 1998, dated 2009).
Read-outs that look alike come from different tables or passages of the source.

How the values were obtained:
[1] = tested on: intact rat aortae (aortic rings); assay: [3H]AA release in intact rat aortae; type: cell-based
Procedure: Measurement of [^3H]AA release in intact rat aortae. Aortic rings (1.5 mm long) were placed in 1 mL of physiological saline solution (PSS, containing 130 mM NaCl, 5 mM KCl, 1.5 mM CaCl2, 1.2 mM MgCl2, 10 mM HEPES, and 10 mM glucose adjusted to pH 7.2 with NaOH) and incubated with 2.5 μCi of [^3H]AA (specific activity of 91.8 Ci/mmol) for 24 h at 4° C. Rat aortae were subsequently washed in 50 mL of Kreb's buffer and then subjected to the vasoactivity assay. Initial background [^3H]AA release was determined following 30 min of equillibration for each aortic ring prior to treatment by removing 200 μL of Kreb's buffer (total volume of 7 mL each) from each bath, and measuring radioactivity (in cpm) after the addition of 1 mL of scintillant (EcoLume, ICN Inc., Calif.) using a liquid scintillation counter (1209 Rackbeta, WALLAC Inc., Md.). Subsequently, aortic rings were treated with sPLA2 alone or Aβ1-40 (1 μM) in the presence or absence of a MEK1/2 inhibitor (PD 98059) or a cPLA2 inhibitor (AACOCF3) for 5 min, or went untreated for the same length of time (control). Quantification of [^3H]AA release was then preformed as described above. All aortic rings were then subjected to a dose range of ET-1 (1, 2.5, and 5 nM), and radioactivity was measured 5 min after the first dose of ET-1 (1 nM), and 20 min after the second (2.5 nM) and third (5 nM) doses of ET-1. Radioactivity incorporated into each ring was determined by placing the aortic ring in 1 mL of scintillant and assaying as described above. Results are expressed as the means ±1 SE of the percentage of [^3H]AA incorporated for each aortic ring [([^3H]AA released—[^3H]AA initial background)/incorporated [^3H]AA].
(§1) Statistical analysis. Analysis of variance (ANOVA) was used to analyze the data, with post-hoc comparisons of means carried out where appropriate by Sheffe's or Bonferonni's methods. As previously described (Paris et al., Neurosci Lett, 1998), a significant interactive term by ANOVA was taken as evidence that both drug x and Aβ are modulating a common signal transduction pathway. […] Levene's test for equality of variance followed by t-test for independent samples was used for single mean comparisons. Alpha levels were set at 0.05 for all analyses. Analyses were performed using SPSS for Windows release 9.5.

[2] = tested on: rat aortae (aortic rings); assay: Vessel bath vasoactivity assay: ET-1-induced vasoconstriction of rat aortic rings and its enhancement by Aβ or sPLA2; type: cell-based; settings: for effect on sPLA2-induced vasoconstriction: inactivation of sPLA2
Procedure: Vessel experiments. Freshly dissected aortae were prepared from normal male Sprague-Dawley rats (7-8 months old, purchased from Zivic Miller, Zelienople, Pa.) as previously described by Paris et al, Exp Neurol 1998 and Exp Neurol 1999. Rat aortae were segmented into rings and suspended in Kreb's buffer on hooks connected to a tensiometer linked to a MacLab system. Aortic rings were equilibrated for 2 hours, in 7 mL tissue baths containing Kreb's buffer oxygenated with 95% O2: 5% CO2, and thermoregulated to 37° C. A baseline tension of 2 g was applied to each ring, and the first set of aortic rings was pretreated with the various compounds named above either alone or in combination with Aβ peptides. After 5 minutes of incubation in the presence or absence of Aβ, this first set of vessels was subjected to a dose range of ET-1 (from 1 nM to 5 nM). A second set of vessels was treated with 1 μM of Aβ peptides prior to the addition of ET-1. A third set (control) received only ET-1 treatment. Each ET-1 dose was added only after the constriction response to the previous dose had reached a plateau. In all cases the means ±1 standard error (SE) of the percentage vasoconstriction increase over baseline were determined for each dose of ET-1 used.
as §1

N9 microglial cells = assay: Leukotriene B4 (LTB4) ELISA on microglial cell supernatants; type: cell-based, murine; settings: 18 hours, FIG. 23
Procedure: Leukotriene -B4 (LTB4) enzyme-linked immunoabsorbant assay (ELISA). Quantitative determination of LTB4 levels was made using a competitive binding ELISA (R&D Systems, Minneapolis, Minn.) designed to measure LTB4 in cell culture supernatants (as described in Paris et al., Exp Neurol 1999). A murine microglial cell line (N9) was provided by Dr. Paola Ricciardi-Castagnoli (Cellular Pharmacology Center, Milan, Italy) and were grown in RPMI medium supplemented with five percent fetal calf serum, 2 mM glutamine, 100 U/mL penicillin, […] streptomycin and 0.05 mM 2-mercaptoethanol. Microglial cells were seeded at 50,000 cells/well in 6-well plates (Falcon, France) and treated with Aβ1-40 (500 nM), drugs which oppose the PLA2/AA/5-LOX/COX-2 pathway, or untreated (control) and incubated for 18 hours. Cell supernatants were then collected and diluted 10-fold in assay buffer. 50 μL of diluted samples were then used in the assay, and each sample was assayed in duplicate. Manipulations were performed in accordance with the manufacturer's instruction. A spectramax 250 spectrophotometer (Molecular Devices, San Diego, USA) was used to measure absorbance at 405 nm and a standard curve was plotted using a 4-parameter model.
as §1

[3] = tested on: rat aortae (aortic rings); settings: cited from earlier work
[4] = 5 μM with 1 μM Aβ1-40, FIGS. 11, 19
[5] = 25 μM with 1 μM Aβ1-40, FIGS. 5, 16
[6] = 1 μM with 1 μM Aβ1-40, 5 minutes prior to ET-1, FIGS. 7, 9, 10, 12

Q: For `CCCCC/C=C\C/C=C\C/C=C\C/C=C\CCCC(=O)C(F)(F)F` [AACOCF3], which “effect on Aβ-induced [3H]AA release from aortic rings” value ([1]; 1 μM with Aβ1-40 1 μM, FIG. 21) is on record?
A: inhibited

Q: For `CCCCC/C=C\C/C=C\C/C=C\C/C=C\CCCC(=O)O` [AA, Arachidonic acid], which “effect on ET-1-induced vasoconstriction” value ([2]; concentration not given) is on record?
A: can enhance ET-1-induced constriction

Q: With diacylglycerol [DAG] as the compound, how does the “effect on ET-1-induced vasoconstriction” value ([2]; 10 μM, 5 minutes prior to ET-1 dose range, FIG. 14) read?
A: able to potentiate ET-1-induced vasoconstriction

Q: For `O=c1c(O)c(-c2ccc(O)c(O)c2)oc2cc(O)cc(O)c12` [Quercetin, quercetin], which “effect on Aβ vasoactivity (Aβ1-40 enhancement of ET-1-induced vasoconstriction)” value ([2]; 10 μM with 1 μM Aβ1-40, FIGS. 8, 14) is on record?
A: unable to block Aβ vasoactivity

Q: With `O[C@@H](CS)[C@@H](O)CS` (racemic) [dithiothreithol] as the compound, how does the “effect on sPLA2-induced vasoconstriction” value ([2]; concentration not given) read?
A: inhibition of sPLA2-induced vasoconstriction

Q: Which “effect on Aβ-induced microglial LTB4 release” value (N9 microglial cells; 50 μM with Aβ1-40 500 nM) does the source give for `CS(=O)(=O)Nc1ccc([N+](=O)[O-])cc1OC1CCCCC1` [NS-398] here?
A: complete blockade of LTB4 release

Q: What about the “effect on Aβ vasoactivity (Aβ1-40 enhancement of ET-1-induced vasoconstriction)” value [2, 4] of the same compound?
A: able to block Aβ vasoactivity

Q: For `Oc1ccc(-c2nc(-c3ccncc3)c(-c3ccc(F)cc3)[nH]2)cc1` [SB 202190], which “effect on Aβ-induced microglial LTB4 release” value (N9 microglial cells; 5 μM with Aβ1-40 500 nM) is on record?
A: complete blockade of Aβ-induced microglial LTB4 release

Q: And the “effect on Aβ vasoactivity (Aβ1-40 enhancement of ET-1-induced vasoconstriction)” value [2, 4]?
A: complete inhibition of Aβ vasoactivity

Q: For “p-aminophenyl-α-D-mannopyranoside-bovine serum albumin [mannose-BSA]”, which “effect on ET-1-induced vasoconstriction” value [2] is on record?
A: vasoactive to a similar extent as Aβ

Q: For pertussis toxin, which “effect on Aβ vasoactivity” value ([2]; concentration not given) is on record?
A: insensitive

Q: Which “effect on Aβ vasoactivity (Aβ1-40 enhancement of ET-1-induced vasoconstriction)” value ([2]; 1.5 μM with 1 μM Aβ1-40, FIG. 15) does the source give for `CN(C)CCCn1cc(C2=C(c3c[nH]c4ccccc34)C(=O)NC2=O)c2ccccc21` [bisindolylmaleimide I] here?
A: reduction in Aβ vasoactivity was merely additive

Q: And the “effect on ET-1-induced vasoconstriction” value ([2]; 1.5 μM, 5 minutes prior to ET-1 dose range, FIG. 15)?
A: statistically interactive reduction in ET-1-induced vasoconstriction

Q: With isotetrandrine as the compound, how does the “effect on Aβ vasoactivity (Aβ1-40 enhancement of ET-1-induced vasoconstriction)” value [2, 5] read?
A: partially blocked Aβ vasoactivity

Q: For `CC(C)c1ccc2c(c1)c(SC(C)(C)C)c(CC(C)(C)C(=O)O)n2Cc1ccc(Cl)cc1` [MK-886], which “effect on Aβ vasoactivity (Aβ1-40 enhancement of ET-1-induced vasoconstriction)” value [2, 6] is on record?
A: markedly inhibits Aβ vasoactivity

Q: Which “magnitude of constriction induced by ET-1 in isolated mammalian vessels” value ([3]; freshly solubilized, previously shown (Crawford et al., 1998)) does the source give for “Aβ1-42: soluble β-amyloid peptide with forty-two amino acids, obtained from QCB” here?
A: increase the magnitude of constriction induced by ET-1

Q: For “APP657-676: APP-derived peptide, a known stimulator of Go (EFRHDSGYEVHHQKLVFFAE; UniProt P05067 674-693, looked up, fragment)”, which “effect on Aβ vasoactivity” value ([2]; concentration not given) is on record?
A: not able to modulate ET-1-induced vasoconstriction or to affect Aβ-vasoactivity

Q: And the “effect on ET-1-induced vasoconstriction” value ([2]; concentration not given)?
A: not able to modulate ET-1-induced vasoconstriction

Q: With `COc1cccc(-c2cc(=O)c3ccccc3o2)c1N` [PD 98059] as the compound, how does the “effect on Aβ-induced [3H]AA release from aortic rings” value ([1]; 25 μM with Aβ1-40 1 μM, FIG. 22) read?
A: blocked

Q: And the “effect on Aβ-induced microglial LTB4 release” value (N9 microglial cells; 25 μM with Aβ1-40 500 nM)?
A: complete blockade of Aβ-induced microglial LTB4 release

Q: What about the “effect on Aβ vasoactivity (Aβ1-40 enhancement of ET-1-induced vasoconstriction)” value [2, 5] of the same compound?
A: complete blockade

Q: And the “effect on Aβ1-42 vasoactivity” value ([2]; 25 μM with 1 μM Aβ1-42, FIG. 17)?
A: complete blockade

Q: What about the “effect on sPLA2 enhancement of ET-1-induced vasoconstriction” value ([2]; 25 μM with 2.5 U/mL sPLA2, FIG. 18) of the same compound?
A: completely inhibit sPLA2 enhancement of ET-1-induced vasoconstriction

Q: With `COc1cccc2c1cc([N+](=O)[O-])c1c(C(=O)O)cc3c(c12)OCO3` [aristolochic acid] as the compound, how does the “effect on Aβ vasoactivity” value ([2]; high doses (25 μM)) read?
A: partial blockade of the vasoactive properties of Aβ

Q: What about the “effect on Aβ vasoactivity” value ([2]; low doses (<10 μM)) of the same compound?
A: unable to affect Aβ vasoactivity

Q: Which “effect on Aβ vasoactivity (Aβ1-40 enhancement of ET-1-induced vasoconstriction)” value [2, 6] does the source give for `O=C1O/C(=C/Br)CCC1c1cccc2ccccc12` (centres unmarked) [HELSS, haloenol lactone suicide substrate] here?
A: unable to affect Aβ-induced vasoactivity

Q: For `CC[C@H](C)[C@H](NC(=O)CN)C(=O)NCC(=O)N[C@@H](C)C(=O)N[C@H](C(=O)N[C@@H](CC(C)C)C(=O)N[C@@H](CCCCN)C(=O)N[C@H](C(=O)N[C@@H](CC(C)C)C(=O)N[C@H](C(=O)N[C@H](C(=O)NCC(=O)N[C@@H](CC(C)C)C(=O)N1CCC[C@H]1C(=O)N[C@@H](C)C(=O)N[C@@H](CC(C)C)C(=O)N[C@H](C(=O)N[C@@H](CO)C(=O)N[C@@H](Cc1c[nH]c2ccccc12)C(=O)N[C@H](C(=O)N[C@@H](CCCCN)C(=O)N[C@@H](CCCNC(=N)N)C(=O)N[C@@H](CCCCN)C(=O)N[C@@H](CCCNC(=N)N)C(=O)N[C@@H](CCC(N)=O)C(=O)N[C@@H](CCC(N)=O)C(N)=O)[C@@H](C)CC)[C@@H](C)CC)[C@@H](C)O)[C@@H](C)O)C(C)C)C(C)C` [Melittin], which “effect on ET-1-induced vasoconstriction” value ([2]; 1 μM, 5 minutes prior to ET-1 dose range (1-5 nM), FIG. 3) is on record?
A: potentiate ET-1-induced vasoconstriction to a similar extent as Aβ

Q: For `Nc1ncnc2c1ncn2C1CCCO1` (centres unmarked) [SQ-22536], which “effect on Aβ vasoactivity” value ([3]; adenylyl cyclase inhibitor, reference given) is on record?
A: does not have any effect on the vasoactive properties of Aβ

Q: With mastoparan as the compound, how does the “effect on ET-1-induced vasoconstriction” value ([2]; 5 μM, 5 minutes prior to ET-1 dose range, FIG. 4) read?
A: potentiate ET-1-induced vasoconstriction to a similar extent as Aβ

Q: Which “effect on Aβ vasoactivity (Aβ1-40 enhancement of ET-1-induced vasoconstriction)” value ([2]; 8 μM with 1 μM Aβ1-40, FIG. 13) does the source give for `O=C(NCCCCCCNC(=O)ON=C1CCCCC1)ON=C1CCCCC1` [RHC-80267] here?
A: not able to modulate ET-1-induced vasoconstriction or to affect Aβ enhancement of ET-1-induced vasoconstriction

Q: What about the “effect on ET-1-induced vasoconstriction” value ([2]; 8 μM, 5 minutes prior to ET-1 dose range, FIG. 13) of the same compound?
A: not able to modulate ET-1-induced vasoconstriction

Q: For `CC(C)NCC(O)COc1cccc2ccccc12` (centres unmarked) [propanolol], which “effect on Aβ vasoactivity” value ([2]; concentration not given) is on record?
A: unable to block Aβ vasoactivity

Q: With `CCCCCCCC/C=C\CCCCCCCCOCCOP(=O)([O-])OCC[N+](C)(C)C` [oleylox., oleyloxyethylphosphocholine] as the compound, how does the “effect on Aβ vasoactivity (Aβ1-40 enhancement of ET-1-induced vasoconstriction)” value [2, 6] read?
A: completely blocks

Q: What about the “effect on Aβ1-42 vasoactivity” value ([2]; 1 μM with Aβ1-42) of the same compound?
A: completely blocks

Q: What about the “effect on sPLA2-induced vasoconstriction” value ([2]; concentration not given) of the same compound?
A: inhibition of sPLA2-induced vasoconstriction
